Experiments:
Assay in all cases: relative viability (nuclei count vs DMSO), 5 days (fraction); higher = more cells survive
[1] = compound: CC1=CC(=CC=C1)NC2=NC(=CS2)C3=CC=NC=C3 + COc1cccc2cc(-c3nc([C@H]4CC[C@H](C(=O)O)CC4)n4ncnc(N)c34)[nH]c12 [OSI-027] (partner 0.5 µM)
Summary of the method: (§1)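 Lung cancer cell lines in 1536-well plates got either a single drug or a fixed anchor-drug dose together with five library-drug doses (not always all listed) in √10 steps, by pin tool, on the day after seeding. Nuclei were counted after 5 days, and relative viability is the treated-to-vehicle ratio of nuclei counts. Values are medians of duplicate plates.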

[2] = compound: Cc1ccc(NC(=O)c2ccc(CN3CCN(C)CC3)cc2)cc1Nc1nc(-c2cccnc2)cs1 [Masitinib] + C[C@]1(O)C[C@@H](c2nc(-c3ccc4ccc(-c5ccccc5)nc4c3)c3c(N)nccn32)C1 [Linsitinib] (partner 1 µM)
Summary of the method: as §1

[3] = compound: Cc1ccc(NC(=O)c2ccc(CN3CCN(C)CC3)cc2)cc1Nc1nc(-c2cccnc2)cs1 [Masitinib] + CC1(C)CCC(c2ccc(Cl)cc2)=C(CN2CCN(c3ccc(C(=O)NS(=O)(=O)c4ccc(N[C@H](CCN5CCOCC5)CSc5ccccc5)c(S(=O)(=O)C(F)(F)F)c4)cc3)CC2)C1 [Navitoclax] (partner 0.5 µM)
Summary of the method: as §1

[4] = compound: CC1=CC(=CC=C1)NC2=NC(=CS2)C3=CC=NC=C3 + O=C(CCCCCCC(=O)Nc1ccccc1)NO [Vorinostat] (partner 1 µM)
Summary of the method: as §1

NCI-H2405
relative viability ([1]; first compound 0.08 µM): 0.564
relative viability ([1]; first compound 0.253 µM): 0.636
relative viability ([1]; first compound 0.8 µM): 0.531
relative viability ([1]; first compound 2.53 µM): 0.702
relative viability ([1]; first compound 8 µM): 0.671
relative viability ([2]; first compound 0.01 µM): 0.96
relative viability ([2]; first compound 0.03162 µM): 1.01
relative viability ([2]; first compound 0.1 µM): 0.945
relative viability ([2]; first compound 0.3162 µM): 0.882
relative viability ([2]; first compound 1 µM): 0.9
relative viability ([3]; first compound 0.01 µM): 0.874
relative viability ([3]; first compound 0.03162 µM): 1.01
relative viability ([3]; first compound 0.1 µM): 1.07
relative viability ([3]; first compound 0.3162 µM): 0.731
relative viability ([3]; first compound 1 µM): 0.825
relative viability ([4]; first compound 0.08 µM): 0.874
relative viability ([4]; first compound 0.253 µM): 0.613
relative viability ([4]; first compound 0.8 µM): 0.892
relative viability ([4]; first compound 8 µM): 0.839

NCI-H3122
relative viability ([1]; first compound 0.08 µM): 0.824
relative viability ([1]; first compound 0.253 µM): 1.03
relative viability ([1]; first compound 0.8 µM): 1.12
relative viability ([1]; first compound 2.53 µM): 1.09
relative viability ([1]; first compound 8 µM): 0.969
relative viability ([2]; first compound 0.01 µM): 1.01
relative viability ([2]; first compound 0.03162 µM): 1.01
relative viability ([2]; first compound 0.1 µM): 1.06
relative viability ([2]; first compound 0.3162 µM): 0.828
relative viability ([2]; first compound 1 µM): 1.1
relative viability ([3]; first compound 0.01 µM): 1.03
relative viability ([3]; first compound 0.03162 µM): 1.04
relative viability ([3]; first compound 0.1 µM): 1.04
relative viability ([3]; first compound 0.3162 µM): 1.09
relative viability ([3]; first compound 1 µM): 1.04
relative viability ([4]; first compound 0.08 µM): 0.912
relative viability ([4]; first compound 0.253 µM): 0.709
relative viability ([4]; first compound 0.8 µM): 1.05
relative viability ([4]; first compound 2.53 µM): 1.03
relative viability ([4]; first compound 8 µM): 0.961

PC-3 [JPC-3]
relative viability ([1]; first compound 0.08 µM): 0.651
relative viability ([1]; first compound 0.253 µM): 0.659
relative viability ([1]; first compound 0.8 µM): 0.599
relative viability ([1]; first compound 2.53 µM): 0.607
relative viability ([1]; first compound 8 µM): 0.594
relative viability ([2]; first compound 0.01 µM): 0.969
relative viability ([2]; first compound 0.03162 µM): 1
relative viability ([2]; first compound 0.1 µM): 0.951
relative viability ([2]; first compound 0.3162 µM): 0.961
relative viability ([2]; first compound 1 µM): 0.964
relative viability ([3]; first compound 0.01 µM): 0.768
relative viability ([3]; first compound 0.03162 µM): 0.682
relative viability ([3]; first compound 0.1 µM): 0.806
relative viability ([3]; first compound 0.3162 µM): 0.659
relative viability ([3]; first compound 1 µM): 0.787
relative viability ([4]; first compound 0.08 µM): 0.579
relative viability ([4]; first compound 0.8 µM): 0.811
relative viability ([4]; first compound 2.53 µM): 0.575
relative viability ([4]; first compound 8 µM): 0.803

PC-14
relative viability ([1]; first compound 0.08 µM): 0.712
relative viability ([1]; first compound 0.253 µM): 0.833
relative viability ([1]; first compound 0.8 µM): 0.795
relative viability ([1]; first compound 2.53 µM): 0.826
relative viability ([1]; first compound 8 µM): 0.702
relative viability ([2]; first compound 0.01 µM): 0.918
relative viability ([2]; first compound 0.03162 µM): 0.904
relative viability ([2]; first compound 0.1 µM): 1
relative viability ([2]; first compound 0.3162 µM): 0.976
relative viability ([2]; first compound 1 µM): 0.999
relative viability ([3]; first compound 0.01 µM): 1.05
relative viability ([3]; first compound 0.03162 µM): 0.89
relative viability ([3]; first compound 0.1 µM): 0.991
relative viability ([3]; first compound 0.3162 µM): 1.04
relative viability ([3]; first compound 1 µM): 0.937
relative viability ([4]; first compound 0.08 µM): 0.84
relative viability ([4]; first compound 0.253 µM): 0.674
relative viability ([4]; first compound 0.8 µM): 0.715
relative viability ([4]; first compound 2.53 µM): 0.867
relative viability ([4]; first compound 8 µM): 0.666

RERF-LC-KJ
relative viability ([1]; first compound 0.08 µM): 0.512
relative viability ([1]; first compound 0.253 µM): 0.572
relative viability ([1]; first compound 0.8 µM): 0.569
relative viability ([1]; first compound 2.53 µM): 0.415
relative viability ([1]; first compound 8 µM): 0.37
relative viability ([2]; first compound 0.01 µM): 0.878
relative viability ([2]; first compound 0.03162 µM): 0.849
relative viability ([2]; first compound 0.1 µM): 0.926
relative viability ([2]; first compound 0.3162 µM): 0.871
relative viability ([2]; first compound 1 µM): 0.736
relative viability ([3]; first compound 0.01 µM): 0.986
relative viability ([3]; first compound 0.1 µM): 1.07
relative viability ([3]; first compound 0.3162 µM): 0.873
relative viability ([3]; first compound 1 µM): 0.541
relative viability ([4]; first compound 0.08 µM): 0.662
relative viability ([4]; first compound 0.253 µM): 0.541
relative viability ([4]; first compound 0.8 µM): 0.526
relative viability ([4]; first compound 2.53 µM): 0.373
relative viability ([4]; first compound 8 µM): 0.279

SK-LU-1
relative viability ([1]; first compound 0.08 µM): 0.32
relative viability ([1]; first compound 0.253 µM): 0.374
relative viability ([1]; first compound 2.53 µM): 0.348
relative viability ([1]; first compound 8 µM): 0.273
relative viability ([2]; first compound 0.01 µM): 1.06
relative viability ([2]; first compound 0.03162 µM): 1.22
relative viability ([2]; first compound 0.1 µM): 1.26
relative viability ([2]; first compound 0.3162 µM): 1.43
relative viability ([2]; first compound 1 µM): 1.25
relative viability ([3]; first compound 0.01 µM): 0.927
relative viability ([3]; first compound 0.03162 µM): 1.05
relative viability ([3]; first compound 0.1 µM): 1.04
relative viability ([3]; first compound 0.3162 µM): 1
relative viability ([3]; first compound 1 µM): 0.869
relative viability ([4]; first compound 0.08 µM): 0.76
relative viability ([4]; first compound 0.253 µM): 0.796
relative viability ([4]; first compound 0.8 µM): 0.53
relative viability ([4]; first compound 2.53 µM): 0.799
relative viability ([4]; first compound 8 µM): 0.727

SK-MES-1
relative viability ([1]; first compound 0.08 µM): 0.517
relative viability ([1]; first compound 0.253 µM): 0.484
relative viability ([1]; first compound 0.8 µM): 0.549
relative viability ([1]; first compound 2.53 µM): 0.714
relative viability ([1]; first compound 8 µM): 0.511
relative viability ([2]; first compound 0.01 µM): 1.11
relative viability ([2]; first compound 0.03162 µM): 1.18
relative viability ([2]; first compound 0.1 µM): 1.16
relative viability ([2]; first compound 0.3162 µM): 1.03
relative viability ([2]; first compound 1 µM): 0.987
relative viability ([3]; first compound 0.01 µM): 1.29
relative viability ([3]; first compound 0.03162 µM): 1.23
relative viability ([3]; first compound 0.1 µM): 1.24
relative viability ([3]; first compound 0.3162 µM): 1.17
relative viability ([3]; first compound 1 µM): 0.99
relative viability ([4]; first compound 0.08 µM): 0.851
relative viability ([4]; first compound 0.253 µM): 0.829
relative viability ([4]; first compound 0.8 µM): 0.819
relative viability ([4]; first compound 2.53 µM): 0.86
relative viability ([4]; first compound 8 µM): 0.822

SW 1573
relative viability ([1]; first compound 0.08 µM): 0.569
relative viability ([1]; first compound 0.253 µM): 0.593
relative viability ([1]; first compound 0.8 µM): 0.723
relative viability ([1]; first compound 2.53 µM): 0.561
relative viability ([1]; first compound 8 µM): 0.536
relative viability ([2]; first compound 0.01 µM): 0.689
relative viability ([2]; first compound 0.03162 µM): 0.848
relative viability ([2]; first compound 0.1 µM): 0.985
relative viability ([2]; first compound 0.3162 µM): 0.838
relative viability ([2]; first compound 1 µM): 0.803
relative viability ([3]; first compound 0.01 µM): 0.975
relative viability ([3]; first compound 0.03162 µM): 1.05
relative viability ([3]; first compound 0.1 µM): 1.09
relative viability ([3]; first compound 0.3162 µM): 1.19
relative viability ([3]; first compound 1 µM): 0.972
relative viability ([4]; first compound 0.08 µM): 0.739
relative viability ([4]; first compound 0.253 µM): 0.748
relative viability ([4]; first compound 0.8 µM): 0.815
relative viability ([4]; first compound 2.53 µM): 0.727
relative viability ([4]; first compound 8 µM): 0.687
